Read-outs that look alike come from different tables or passages of the source.
Columns and labels:
Human α4β2 nAChR subtype = biological target: T1, Human α4β2 nAChR subtype (Homo sapiens, UniProt P17787+P43681); experiment: [3H]nicotine radioligand binding, membranes from SH-EP1/human α4β2 clonal cells
T1 construct: expressed in transfected cells; host or cells: SH-EP1 clonal cells
Experimental: Preparation of membranes from SH-EP1/human α4β2 clonal cells:
Cell pellets from 40 150 mm culture dishes were pooled, and homogenized by Polytron (Kinematica GmbH, Switzerland) in 20 milliliters of ice-cold preparative buffer. The homogenate was centrifuged at 48,000 g for 20 minutes at 4° C. The resulting pellet was re-suspended in 20 mL of ice-cold preparative buffer and stored at ˜20° C.
(§1) On the day of the assay, the frozen membranes were thawed and spun at 48,000×g for 20 min. The supernatant was decanted and discarded. The pellet was resuspended in Dulbecco's phosphate buffered saline (PBS, Life Technologies) pH 7.4 and homogenized with the Polytron for 6 seconds. Protein concentrations were determined using a Pierce BCA Protein Assay Kit, with bovine serum albumin as the standard (Pierce Chemical Company, Rockford, Ill.).
(§2) Assay: Membrane preparations (approximately 50 μg for human and 200-300 μg protein for rat α4β2) were incubated in PBS (50 μL and 100 μL respectively) in the presence of competitor compound (0.01 nM to 100 μM) and 5 nM [^3H]nicotine for 2-3 hours on ice. Incubation was terminated by rapid filtration on a multi-manifold tissue harvester (Brandel, Gaithersburg, Md.) using GF/B filters presoaked in 0.33% polyethyleneimine (w/v) to reduce non-specific binding. Tissue was rinsed 3 times in PBS, pH 7.4. Scintillation fluid was added to filters containing the washed tissue and allowed to equilibrate. Filters were then counted to determine radioactivity bound to the membranes by liquid scintillation counting (2200CA Tri-Carb LSC, Packard Instruments, 50% efficiency or Wallac Trilux 1450 MicroBeta, 40% efficiency, Perkin Elmer).
(§3) Data were expressed as disintegrations per minute (DPMs). Within each assay, each point had 2-3 replicates. The replicates for each point were averaged and plotted against the log of the drug concentration. IC50, which is the concentration of the compound that produces 50% inhibition of binding, was determined by least squares non-linear regression. Ki values were calculated using the Cheng-Prussof equation (1973): […]
(§4) where N is the concentration of [^3H]nicotine and Kd is the affinity of nicotine (3 nM, determined in a separate experiment).

Rat α4β2 nAChR subtype = biological target: T2, Rat α4β2 nAChR subtype (Rattus norvegicus, UniProt P09483+P12390); experiment: [3H]nicotine radioligand binding, membranes from rat cortex
T2 construct: from tissue; host or cells: rat cerebral cortex membranes (female Sprague-Dawley)
T2 sequence (P09483 31-630): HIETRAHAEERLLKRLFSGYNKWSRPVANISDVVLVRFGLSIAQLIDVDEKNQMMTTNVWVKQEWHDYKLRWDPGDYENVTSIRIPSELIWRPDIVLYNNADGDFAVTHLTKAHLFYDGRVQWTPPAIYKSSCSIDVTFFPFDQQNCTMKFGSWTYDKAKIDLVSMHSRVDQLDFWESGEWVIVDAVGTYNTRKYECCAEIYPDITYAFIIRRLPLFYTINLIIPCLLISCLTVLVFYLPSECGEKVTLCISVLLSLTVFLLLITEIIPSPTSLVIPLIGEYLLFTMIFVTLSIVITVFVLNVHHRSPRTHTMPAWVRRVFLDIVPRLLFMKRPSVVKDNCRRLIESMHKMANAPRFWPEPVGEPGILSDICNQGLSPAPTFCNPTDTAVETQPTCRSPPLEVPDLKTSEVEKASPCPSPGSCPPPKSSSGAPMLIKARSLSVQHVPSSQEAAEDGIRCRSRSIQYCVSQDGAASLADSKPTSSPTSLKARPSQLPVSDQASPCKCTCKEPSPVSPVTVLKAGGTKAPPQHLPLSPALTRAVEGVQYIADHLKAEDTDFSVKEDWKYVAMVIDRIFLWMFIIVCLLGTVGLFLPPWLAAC
T2 sequence (P12390 25-500): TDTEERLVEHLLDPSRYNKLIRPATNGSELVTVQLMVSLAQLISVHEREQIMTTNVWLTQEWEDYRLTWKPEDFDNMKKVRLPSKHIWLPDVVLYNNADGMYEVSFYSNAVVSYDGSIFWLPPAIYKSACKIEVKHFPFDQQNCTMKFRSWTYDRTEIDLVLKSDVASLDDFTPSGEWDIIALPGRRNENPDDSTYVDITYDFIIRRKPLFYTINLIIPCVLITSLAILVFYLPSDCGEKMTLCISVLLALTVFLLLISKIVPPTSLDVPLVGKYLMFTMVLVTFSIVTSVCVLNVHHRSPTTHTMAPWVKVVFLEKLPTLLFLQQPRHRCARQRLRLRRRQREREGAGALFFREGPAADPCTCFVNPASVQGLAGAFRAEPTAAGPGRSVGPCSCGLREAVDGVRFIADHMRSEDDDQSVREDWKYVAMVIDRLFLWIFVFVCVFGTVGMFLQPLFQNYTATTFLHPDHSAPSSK
Experimental: Preparation of membranes from rat cortex: Rats (female, Sprague-Dawley), weighing 150-250 g, were maintained on a 12 h light/dark cycle and were allowed free access to water and food supplied by PMI Nutrition International, Inc. Animals were anesthetized with 70% CO2, and then decapitated. Brains were removed and placed on an ice-cold platform. The cerebral cortex was removed and placed in 20 volumes (weight:volume) of ice-cold preparative buffer (137 mM NaCl, 10.7 mM KCl, 5.8 mM KH2PO4, 8 mM Na2HPO4, 20 mM HEPES (free acid), 5 mM iodoacetamide, 1.6 mM EDTA, pH 7.4); PMSF, dissolved in methanol to a final concentration of 100 μM, was added and the suspension was homogenized by Polytron. The homogenate was centrifuged at 18,000×g for 20 min at 4° C. and the resulting pellet was re-suspended in 20 volumes of ice-cold water. After 60 min incubation on ice, a new pellet was collected by centrifugation at 18,000×g for 20 min at 4° C. The final pellet was re-suspended in 10 volumes of buffer and stored at ˜20° C.
as §1, §2, §3, §4

[1] = [3H]nicotine, "Failed HTS" = failed to bind sufficiently in high through-put screening to warrant Ki determination
[2] = [3H]nicotine, "Failed HTS" = failed to bind sufficiently in high through-put screening to warrant Ki determination, read-out: Human α4β2 Ki
[3] = [3H]nicotine, "Failed HTS" = failed to bind sufficiently in high through-put screening to warrant Ki determination, read-out: Rat α4β2 Ki

T1 sequence (P43681 29-627 limits assumed): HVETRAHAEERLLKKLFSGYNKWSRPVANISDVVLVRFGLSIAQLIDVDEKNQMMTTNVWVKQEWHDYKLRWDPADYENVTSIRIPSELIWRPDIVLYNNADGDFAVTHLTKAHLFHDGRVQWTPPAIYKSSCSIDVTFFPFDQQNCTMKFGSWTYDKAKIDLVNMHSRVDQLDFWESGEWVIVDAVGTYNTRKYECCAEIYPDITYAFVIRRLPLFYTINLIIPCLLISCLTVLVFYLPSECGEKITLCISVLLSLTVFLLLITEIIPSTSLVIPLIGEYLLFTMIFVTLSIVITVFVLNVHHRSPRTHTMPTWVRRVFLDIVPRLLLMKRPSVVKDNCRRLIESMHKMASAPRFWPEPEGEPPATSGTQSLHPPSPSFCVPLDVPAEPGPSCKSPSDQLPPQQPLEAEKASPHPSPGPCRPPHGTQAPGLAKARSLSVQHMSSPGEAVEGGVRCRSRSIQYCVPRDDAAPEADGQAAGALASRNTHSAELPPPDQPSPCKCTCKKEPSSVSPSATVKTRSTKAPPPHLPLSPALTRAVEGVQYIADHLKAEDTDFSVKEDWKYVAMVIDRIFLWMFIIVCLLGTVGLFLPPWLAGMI
T1 sequence (P17787 26-502): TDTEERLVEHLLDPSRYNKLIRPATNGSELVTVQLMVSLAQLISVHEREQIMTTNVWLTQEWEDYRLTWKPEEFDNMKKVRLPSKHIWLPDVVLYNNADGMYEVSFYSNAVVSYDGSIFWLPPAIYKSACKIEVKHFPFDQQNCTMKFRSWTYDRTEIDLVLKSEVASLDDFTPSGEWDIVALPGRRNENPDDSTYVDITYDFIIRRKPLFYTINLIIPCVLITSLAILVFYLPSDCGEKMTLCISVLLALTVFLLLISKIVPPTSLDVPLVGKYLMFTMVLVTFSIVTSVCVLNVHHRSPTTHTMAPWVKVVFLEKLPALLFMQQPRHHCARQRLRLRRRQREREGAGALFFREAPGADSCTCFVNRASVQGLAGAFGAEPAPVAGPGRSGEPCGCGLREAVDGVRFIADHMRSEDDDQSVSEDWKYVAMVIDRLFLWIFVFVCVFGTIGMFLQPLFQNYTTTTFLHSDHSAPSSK

Structure (SMILES) | Rat α4β2 Ki (nM) (Rat α4β2 nAChR subtype; [1]) | Ki (Human α4β2 nAChR subtype; [2]) | further results
CNc1cnc2cc3c(cc2n1)CCNCC3 [K] | Failed HTS |  | Human α4β2 Ki (nM) (Human α4β2 nAChR subtype; [1]): Failed HTS
COc1ccc2cc3c(cc2n1)CCNCC3 [P] | Failed HTS | 1200 nM | 
Cc1nc2cc3c(cc2nc1C)CCNCC3 [B] |  |  | Ki (Human α4β2 nAChR subtype): 98 nM; Ki (Rat α4β2 nAChR subtype): 590 nM
O=c1ccc2cc3c(cc2[nH]1)CCNCC3 [N] | Failed HTS |  | Human α4β2 Ki (nM) (Human α4β2 nAChR subtype; [1]): Failed HTS
c1cnc2cc3c(cc2c1)CCNCC3 [F] |  | 0.93 nM | Ki (Rat α4β2 nAChR subtype; [3]): 3 nM
CCc1nc2cc3c(cc2nc1C)CCNCC3 [C] | Failed HTS | 310 nM | 
Cc1ccc2cc3c(cc2n1)CCNCC3 [Q] |  | 11 nM | Ki (Rat α4β2 nAChR subtype; [3]): 45 nM
c1cncc(-c2cnc3cc4c(cc3n2)CCNCC4)c1 [I] | Failed HTS |  | Ki (Human α4β2 nAChR subtype): 7400 nM
CCc1nc2cc3c(cc2nc1CC)CCNCC3 [D] | Failed HTS | 460 nM | 
CN1CCc2cc3nccnc3cc2CC1 [R] | Failed HTS |  | Ki (Human α4β2 nAChR subtype): 210 nM
Cc1cnc2cc3c(cc2n1)CCNCC3 [E] |  | 37 nM | Ki (Rat α4β2 nAChR subtype; [3]): 63 nM
CN(C)c1cnc2cc3c(cc2n1)CCNCC3 [L] | Failed HTS | 740 nM | 
COc1cnc2cc3c(cc2n1)CCNCC3 [H] |  | 25 nM | Ki (Rat α4β2 nAChR subtype; [3]): 77 nM
c1ccc(CNc2cnc3cc4c(cc3n2)CCNCC4)cc1 [M] | Failed HTS | 530 nM | 
Clc1cnc2cc3c(cc2n1)CCNCC3 [J] |  |  | Ki (Human α4β2 nAChR subtype): 45 nM; Ki (Rat α4β2 nAChR subtype): 12 nM
O=c1cnc2cc3c(cc2[nH]1)CCNCC3 [G] |  | 63 nM | Ki (Rat α4β2 nAChR subtype; [3]): 120 nM
Clc1ccc2cc3c(cc2n1)CCNCC3 [O] |  |  | Ki (Human α4β2 nAChR subtype): 0.48 nM; Ki (Rat α4β2 nAChR subtype): 3.1 nM
